Laboratory results: ChEMBL document CHEMBL1828514, “Comparison of the reactivity of antimalarial 1,2,4,5-tetraoxanes with 1,2,4-trioxolanes in the presence of ferrous iron salts, heme, and ferrous iron salts/phosphatidylcholine” (J Med Chem, 2011)
Activity calls are given as the source filed them. The rule behind the calls is not given here.

Legend:
Plasmodium falciparum = test: Antimalarial activity against Plasmodium falciparum 3D7 assessed as inhibition of [3H]hypoxanthine incorporation after 48 hrs by liquid scintillation counting; assay type: functional, organism-based
[1] = Induction of alkylated heme adduct formation from reaction with ferrous heme by LC/MS analysis
[2] = Chemical stability of the compound assessed as iron-mediated decomposition after 24 hrs by LC/MS analysis; assay type: physicochemical
[3] = Induction of 2-Linoleoyl-1-palmitoyl-sn-phosphotidylcholine peroxidation in the presence of Ferrous sulphate after 24 hrs by LC/MS analysis; assay type: functional
[4] = Induction of oxyl radical formation from reaction with ferrous salt in the presence of 2,2,6,6-tetramethyl-1-piperidine-1-oxyl after 24 hrs by spin-trapping and LC/MS analysis; assay type: physicochemical
[5] = Induction of 2-Linoleoyl-1-palmitoyl-sn-phosphotidylcholine peroxidation in the presence of ferrous sulphate after 24 hrs by ESI/MS analysis; assay type: functional
[6] = Induction of oxyl radical formation from reaction with iron(2) gluconate after 12 hrs by LC/MS analysis; assay type: physicochemical
[7] = Induction of TEMPO adduct formation after 24 hrs in presence of 2,2,6,6-tetramethyl-1-piperidine-1-oxyl and ferrous sulfate by LC/MS analysis
[8] = Induction of oxyl radical formation from reaction with ferrous heme assessed as decrease in heme concentration by HPLC analysis relative to control; assay type: physicochemical; design: scale not given: the % may be the effect or the level left
[9] = Induction of formation of Manganese-TPC adduct from reaction with manganese(2) tetraphenylporphyrin; assay type: physicochemical
[10] = Induction of formation of chlorin-type adduct from reaction with iron(2) tetraphenylporphyrin; assay type: physicochemical
[11] = Induction of formation of demetalated adduct from reaction with iron(2) tetraphenylporphyrin; assay type: physicochemical

Row | SMILES | IC50 (Plasmodium falciparum) [nM] | Activity [1] | Stability [2] | Activity [3] | Activity [7] | Activity [8] [%] | other results
1 | O=C(CC1CCC2(CC1)OOC1(OO2)C2CC3CC(C2)CC1C3)N1CCOCC1 (centres undefined) | 5.2 | Active |  |  |  |  | 
2 | CC(C)CN1CCN(C(=O)C[C@H]2CC[C@]3(CC2)OO[C@]2(O3)C3CC4CC(C3)CC2C4)CC1 | 2.1 | Active | Unstable | Active |  |  | 
3 | CC(C)(N)CNC(=O)C[C@H]1CC[C@]2(CC1)OO[C@]1(O2)C2CC3CC(C2)CC1C3 [OZ277] |  |  |  |  |  |  | Activity [4]: Active
4 | O=C(CC1CCC2(CC1)OOC1(OO2)C2CC3CC(C2)CC1C3)NCc1ccc(F)cc1 (centres undefined) | 3 |  |  |  |  |  | Activity [5]: Active; Activity [6]: Active
5 | CCOC(=O)CC1CCC2(CC1)OOC1(OO2)C2CC3CC(C2)CC1C3 (centres undefined) | 10 |  |  |  | Active |  | 
6 | O=C(CC1CCC2(CC1)OOC1(OO2)C2CC3CC(C2)CC1C3)N1CCN(C2CCNCC2)CC1 (centres undefined) | 0.4 | Active | Unstable | Active |  | 38 | 
7 | CN1CCN(C2CCN(C(=O)C[C@H]3CC[C@]4(CC3)OO[C@]3(O4)C4CC5CC(C4)CC3C5)CC2)CC1 | 0.5 |  | Unstable | Active |  |  | 
8 | O=C(CC1CCC2(CC1)OOC1(OO2)C2CC3CC(C2)CC1C3)NC1CC1 (centres undefined) | 2.3 |  |  |  | Active |  | 
9 | CC(CN1CCNCC1)C(=O)CC1CCC2(CC1)OOC1(OO2)C2CC3CC(C2)CC1C3 (centres undefined) | 1.4 | Active | Unstable | Active | Active | 53 | Activity [9]: Active; Activity [10]: Active; Activity [4]: Active; Activity [11]: Active
10 | C[C@@H]1CC[C@H]2[C@@H](C)C(=O)O[C@@H]3O[C@@]4(C)CC[C@@H]1[C@]32OO4 [ARTEMISININ] |  |  |  |  |  | 70 | Activity [5]: inactive
